Assay results as given in US12115208B2, “Small-molecule adjuvants for antibiotics to address antibiotic resistance” (HIGH POINT UNIVERSITY, priority 2017, dated 2024).
Values joined by “and” are separate entries in the source; they are usually repeats but may differ in a detail not shown here. Identical values can stand only once. Like-named read-outs stand apart in the source and are kept apart here.

How the values were obtained:
blaZ mRNA = assay: RT-qPCR mRNA levels; format: cell-based, Staphylococcus aureus (MRSA); conditions: oxacillin treatment; relative to 16S rRNA
Description: (§1) Triplicate cultures of each condition were briefly centrifuged and cell pellets were stored at −80° C. Pellets were resuspended in 100 uL of lyphostaphin (1 mg/mL) and incubated at room temperature for 10 minutes. Next, lysates were subjected to a Qiashredder column and RNA was purified with RNeasy columns according to the manufacturer's protocol (Qiagen). An on-column DNase step was also included. Total RNA was quantified and purity was assessed with a Nanodrop spectrophotometer (Thermo Scientific). RNA integrity was visualized by agarose gel electrophoresis using GelRed (Phenix) and a ChemiDoc MP (BioRad).
(§2) 200 ng of total RNA was reverse transcribed using random primers, according to the manufacturer's protocol (BioRad select cDNA synthesis kit). Minus reverse transcriptase controls were prepared for each sample. Next, duplicate qPCR reactions were performed for each cDNA template using SYBR green according to the manufacturer's protocol (BioRad SYBR Green Supermix). Primer sequences are found in Supporting Information. Those that the authors designed used NCBI Primer Blast to specify the annealing temperatures, length, location, and analyze specificity and secondary structure. All reactions were run on a StepOne thermal cycler (Applied Biosystems). Cycling parameters were as follows: 95° C. for 10 minutes, 40 cycles of 95° C. for 15 seconds followed by 60° C. for 1 minute. Specificity of each primer pair was assessed with melt curve analyses and agarose gel electrophoresis. The efficiency of each primer pair was calculated using results from calibration curves generated in Microsoft Excel. Contaminating genomic DNA levels were calculated using the comparative Ct method. Gene expression levels relative to 16S rRNA were calculated using a relative quantification model.^17 Statistical significance was determined by unpaired student's t tests. All calculations were performed using Microsoft Excel.
(§3) See Blazquez, B. et al., “Regulation of the expression of the beta-lactam antibiotic-resistance determinants in methicillin-resistant Staphylococcus aureus (MRSA),” Biochemistry 2014, 53 (10), 1548; Staude, M. W. et al., “Investigation of signal transduction routes within the sensor/transducer protein BlaR1 of Staphylococcus aureus,” Biochemistry 2015, 54 (8), 1600; Thumanu, K., et al., “Discrete steps in sensing of beta-lactam antibiotics by the BlaR1 protein of the methicillin-resistant Staphylococcus aureus bacterium,” Proc Natl Acad Sci USA 2006, 103 (28), 10630, which are incorporated herein by reference in their entireties.

blaI mRNA = assay: RT-qPCR mRNA levels; format: cell-based, Staphylococcus aureus (MRSA); conditions: oxacillin treatment; relative to 16S rRNA
Description: as §1, §2, §3

S. aureus USA100 (MRSA) [1] = assay: Antibiotic repotentiation (antibiotic MIC with/without compound); format: cell-based, Staphylococcus aureus; conditions: for MIC of antibiotic: MRSA USA100
Description: (§4) The overnight culture was diluted into fresh CAMHB to a concentration of 5×10^5 CFU/ml. […] On the same plate, a standard microdilution MIC with the tested antibiotics and no added compound was also performed to compare the antibiotic MIC in the presence and absence of compound. […] Fold reductions were calculated by dividing the MIC of the antibiotic without compound by the MIC of the antibiotic in the presence of compound.

[2] = system: S. aureus NR-49120 (VRSA); assay: as above; format: cell-based, Staphylococcus aureus; conditions: VRSA NR-49120
Description: as §4

MRSA = assay: Growth curves; format: cell-based, Staphylococcus aureus; conditions: single treatment: oxacillin 1 μg/mL alone or amoxapine 150 μM alone; MRSA in CAMHB
Description: The overnight culture was diluted into fresh CAMHB to a concentration of 5×10^5 CFU/ml. The cell suspension (3 mL) was aliquoted into sterile culture tubes and compound was added to achieve the desired concentrations. An untreated aliquot served as the control. 200 μl of each suspension or of the untreated control was aliquoted into a flat-bottomed microtiter plate. The plate was maintained at 37° C. with shaking and absorbance readings (600 nm) were recorded every 30 minutes for 24 hours.
MRSA was grown in cation-adjusted Mueller-Hinton broth (CAMHB). […] The optical density of the cultures at 600 nm was measured every 2 hours for 8 hours and again at 24 hours.

S. aureus 43300 (MRSA) = assay: Antibiotic repotentiation (antibiotic MIC with/without compound); format: cell-based, Staphylococcus aureus; conditions: for Fold Reduction: oxacillin MIC
Description: as §4
(§5) The compounds were then analyzed for antibiotic repotentiation activity. […] The tested strains included USA300, which is a common and particularly virulent strain of community-acquired MRSA.

S. aureus ATCC 29213 [3] = assay: as above; format: cell-based, Staphylococcus aureus; conditions: Staphylococcus aureus, ATCC29213, read-out: Oxacillin MIC
Description: as §4, §5

S. aureus USA300 (MRSA) [4] = assay: as above; format: cell-based, Staphylococcus aureus; conditions: for MIC of antibiotic: MRSA USA300
Description: as §4, §5

S. epidermidis 49461 = assay: Antibiotic repotentiation (oxacillin MIC with/without compound); format: cell-based, Staphylococcus epidermidis
Description: as §4
Antibiotic potentiation in S. epidermidis was also investigated.

[5] = target: β-lactamase, MSSA ATCC 29213 (Staphylococcus aureus, UniProt P00807); conditions: treatment alone, compared to untreated cells; MSSA 29213
Sequence of β-lactamase, MSSA ATCC 29213 (P00807 25-281): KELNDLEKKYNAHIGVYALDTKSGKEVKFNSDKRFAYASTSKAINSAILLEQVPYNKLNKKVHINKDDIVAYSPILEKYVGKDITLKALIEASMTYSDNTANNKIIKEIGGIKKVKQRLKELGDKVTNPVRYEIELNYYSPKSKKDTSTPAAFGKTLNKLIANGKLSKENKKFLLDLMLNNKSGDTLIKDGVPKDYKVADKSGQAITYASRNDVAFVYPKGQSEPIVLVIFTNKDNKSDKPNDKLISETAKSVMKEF
Description: For whole cell nitrocefin assays, bacteria was cultured overnight in CAMHB at 37° C. with shaking. The overnight culture was subcultured 1:100 in fresh CAMHB and grown at 37° C. with shaking to mid-log phase (OD600=0.4-0.6). The culture was adjusted to an OD600 of 0.2 in fresh CAMHB. […] These suspensions were incubated at 37° C. with shaking for thirty minutes. The suspensions were adjusted to an OD600 of 0.132 in phosphate buffered saline (PBS, pH 7, 900 μl). A 100 μl of a stock solution of nitrocefin (500 mg/ml in PBS) was added to these suspensions and mixed. The nitrocefin-bacteria suspensions (100 μl) were added to the wells of a clear 96-well polystyrene microtiter plate. A 50 mg/ml solution of nitrocefin in PBS served as a blank. Using BioTek Synergy H1 microplate reader maintained at 37° C., the absorbance at 486 nm was recorded every 5 minutes for 2 hours.
The known β-lactamase inhibitor sulbactam was used as a positive control. Again, all assays were run in triplicate and each data point represents the average of three data points.

MRSA 43300 biofilm = assay: Biofilm inhibition, crystal violet assay; format: cell-based, Staphylococcus aureus; conditions: 30 h
Description: (§6) A standard static crystal violet assay was used to quantify biofilm inhibition.^45 Cultures of S. aureus or S. epidermidis were grown overnight in TSBG (tryptic soy broth with 5% glucose) at 37° C. with shaking. These cultures were used to inoculate fresh TSBG to a calculated optical density of 0.01 at 600 nm (OD600). […] Untreated aliquots were used as a positive control and water served as a negative control. 100 μl of these suspensions were added to the wells of a 96-well polyvinylchloride microtiter plate. […] After incubation, media was discarded and the plates were washed with water to remove non-adherent cells. Adherent biofilms were stained with 110 μl of crystal violet (0.1% in water) and incubated at room temperature for thirty minutes. The crystal violet staining solution was discarded and plates were washed with water to remove excess stain. The resulting stained biofilms were solubilized with 200 μL of 95% ethanol for 10 minutes. 125 μl of the ethanol solutions were transferred to a clear polystyrene microtiter plate for evaluation. Absorbance at 540 nm was recorded using a BioTek Synergy H1 microplate reader. The absorbance of the negative control lanes was subtracted from the experimental values to account for background staining. Percent inhibition was calculated by comparison of the absorbance values of control versus treated wells under identical conditions.
Antibiotic resistance and biofilm formation share similar regulatory mechanisms. […] Biofilm inhibition was first assessed in S. aureus 43300, a methicillin-resistant strain (see Table 18). As described in Materials and Methods, a standard crystal violet assay was used to assess biofilm inhibition by the tested compounds. The IC50 is described as the compound concentration required to inhibit 50% of biofilm formation. The standard deviation is calculated from at least 3 independent experiments.

S. aureus USA100 (MRSA) [6] = assay: microbe, parasite or virus in culture; format: cell-based, Staphylococcus aureus; conditions: compound alone, CAMHB, 18 h
[7] = system: S. aureus ATCC 43300 (MRSA); assay: Minimum inhibitory concentration, broth microdilution; format: cell-based, Staphylococcus aureus; conditions: 18 h
Description: as §5

S. aureus USA300 (MRSA) [8] = assay: as above; format: cell-based, Staphylococcus aureus; conditions: 18 h
Description: as §5

S. aureus ATCC 29213 [9] = assay: as above; format: cell-based; conditions: Staphylococcus aureus
Description: as §5

[10] = system: S. epidermidis ATCC 49461 biofilm; assay: Biofilm inhibition, crystal violet assay; format: cell-based, Staphylococcus epidermidis; conditions: Staphylococcus epidermidis, ATCC49461, 30 h, read-out: Inhibition of biofilm formation IC50
Description: as §6

[11] = +50 μM compound, S. aureus 43300 (MRSA)
[12] = ATCC29213, compound alone, S. aureus ATCC 29213, CAMHB, 18 h, read-out: MIC
[13] = +75 μM compound, S. aureus 43300 (MRSA)
[14] = +150 μM compound, S. aureus 43300 (MRSA)
[15] = Staphylococcus aureus, compound alone, S. aureus ATCC 43300 (MRSA), CAMHB, read-out: MIC
[16] = Staphylococcus aureus, compound alone, S. aureus USA300 (MRSA), CAMHB, read-out: MIC
[17] = +75 μM compound, S. epidermidis 49461

Cc1onc(-c2ccccc2)c1C(=O)N[C@@H]1C(=O)N2[C@@H]1SC(C)(C)[C@@H]2C(=O)O [Oxacillin]
increase in blaZ mRNA (blaZ mRNA): 38 fold
increase in blaI levels (blaI mRNA): 13 fold
MIC of antibiotic (S. aureus USA100 (MRSA) [1]; +Loratadine 50 μM): 0.25 µg/mL
MIC (S. aureus USA100 (MRSA) [1]; Staphylococcus aureus, read-out: Oxacillin MIC): 512 µg/mL
MIC of antibiotic (S. aureus USA100 (MRSA) [1]; antibiotic alone): 256 µg/mL
MIC of antibiotic ([2]; +Loratadine 25 μM): 64 µg/mL
MIC of antibiotic ([2]; +Loratadine 50 μM): 16 µg/mL
effect on cell density (OD 600 nm) after 24 hours (MRSA): negligible effect
MIC of antibiotic (S. aureus 43300 (MRSA); +Amoxapine (150 μM), S. aureus 43300 (MRSA)): 2 µg/mL
MIC of antibiotic (S. aureus 43300 (MRSA); +Loratadine 25 μM, MRSA 43300): 4 µg/mL
MIC of antibiotic (S. aureus 43300 (MRSA); +Loratadine 50 μM, MRSA 43300): 1 µg/mL
MIC of antibiotic (S. aureus 43300 (MRSA); antibiotic alone, no compound, S. aureus 43300 (MRSA)): 32 µg/mL and 16 µg/mL
MIC of antibiotic (S. aureus 43300 (MRSA); antibiotic alone, S. aureus ATCC 43300 (MRSA)): 32 µg/mL
MIC (S. aureus ATCC 29213 [3]): 0.25 µg/mL
MIC of antibiotic (S. aureus USA300 (MRSA) [4]; +Loratadine 25 μM): 2 µg/mL
MIC of antibiotic (S. aureus USA300 (MRSA) [4]; +Loratadine 50 μM): 0.5 µg/mL
MIC (S. aureus USA300 (MRSA) [4]; Staphylococcus aureus, read-out: Oxacillin MIC, oxacillin alone, S. aureus USA300 (MRSA)): 32 µg/mL
MIC of antibiotic (S. aureus USA300 (MRSA) [4]; antibiotic alone): 32 µg/mL
Oxacillin MIC (S. aureus USA300 (MRSA) [4]; oxacillin alone, S. aureus USA300 (MRSA)): 64 µg/mL
MIC (S. epidermidis 49461; Staphylococcus epidermidis, 49461, 18 h, read-out: Oxacillin MIC): 16 µg/mL
effect on β-lactamase activity (nitrocefin hydrolysis) [5]: little effect

Clc1ccc2[nH]c3ccc(Cl)cc3c2c1 [IV-6]
IC50 (MRSA 43300 biofilm): 10.2 µM
Fold Reduction (S. aureus USA100 (MRSA) [1]; oxacillin MIC, +50 μM compound, S. aureus USA100 (MRSA)): 1024/2048
MIC (S. aureus USA100 (MRSA) [6]): >200 µM
Oxacillin MIC (S. aureus 43300 (MRSA); [11]): 1 µg/mL
Fold Reduction (S. aureus 43300 (MRSA); [11]): 32
Oxacillin MIC (S. aureus USA300 (MRSA) [4]; +50 μM compound, S. aureus USA300 (MRSA)): 16/8
Fold Reduction (S. aureus USA300 (MRSA) [4]; oxacillin MIC, +50 μM compound, S. aureus USA300 (MRSA)): 4/8
MIC ([7]; compound alone, S. aureus ATCC 43300 (MRSA), CAMHB, read-out: MIC): >200 µM
MIC (S. aureus USA300 (MRSA) [8]; compound alone, S. aureus USA300 (MRSA), CAMHB, read-out: MIC): >200 µM

CN1CCN(C2=Nc3ccccc3Oc3ccc(Cl)cc32)CC1 [Loxapine, 2-chloro-11-(4-methyl-1-piperazinyl)dibenz[b,f][1,4]oxazepine, reference compound]
MIC (S. aureus ATCC 29213 [9]; [12]): 600 µM
IC50 [10]: 270 µM
Fold Reduction (S. aureus 43300 (MRSA); [13]): 1
Fold Reduction (S. aureus 43300 (MRSA); [14]): 4
MIC [7, 15]: 600 µM
MIC (S. aureus USA300 (MRSA) [8]; [16]): 600 µM
Oxacillin MIC (S. epidermidis 49461; [17]): 8 µg/mL
Fold Reduction (S. epidermidis 49461; oxacillin MIC, +75 μM compound, S. epidermidis 49461): 2

CN1CCN(C2=Nc3cc(Cl)ccc3Nc3ccccc32)CC1 [Clozapine, 8-chloro-11-(4-methyl-1-piperazinyl)-5H-dibenzo[b,e][1,4]diazepine, reference compound]
MIC (S. aureus ATCC 29213 [9]; [12]): 1200 µM
MIC [7, 15]: 600 µM
MIC (S. aureus USA300 (MRSA) [8]; [16]): 600 µM
Oxacillin MIC (S. epidermidis 49461; [17]): 16 µg/mL

Cc1cc2c(s1)Nc1ccccc1N=C2N1CCN(C)CC1 [Olanzapine, reference compound]
MIC (S. aureus ATCC 29213 [9]; ATCC29213, 18 h): 600 µM
Fold Reduction (S. aureus 43300 (MRSA); [13]): 1
Fold Reduction (S. aureus 43300 (MRSA); [14]): 1
MIC ([7]; Staphylococcus aureus): 600 µM
MIC (S. aureus USA300 (MRSA) [8]; Staphylococcus aureus): 600 µM
